Measurements reported in US9017938B2, “Use of microrna-199b-5p in medical and diagnostic field” (Advanced Accelerator Applications, priority 2009, dated 2015).

Columns and labels:
[1] = tested on: MB cell lines; experiment: AZA treatment, miR-199b-5p expression by real-time PCR; type: cell-based; conditions: two cell lines (Med8 and UV238) of a panel of five; 5 μM, 72 h
Description: Five MB cell lines (d283, Daoy, med8a, ons76, uw228) were grown in DMEM supplemented with 10% FBS and antibiotics. Upon reaching 85% confluence, the media was spiked with 5-aza-deoxycytidine (AZA) (Sigma) to a final concentration of 5 μM. Over 72 h the media was replaced daily with fresh AZA-enhanced medium. RNA was extracted using a standard phenol (TRIzol)-chloroform protocol.

[2] = tested on: Daoy cell line; experiment: DAPT treatment, miR-199b expression by real-time PCR; type: cell-based, human; conditions: 10 μM DAPT, 12 h, relative to time 0
Description: The reverse transcriptase (RT) reactions contained 40 ng RNA sample, 50 nM stem-loop RT primer, 1×RT buffer (P/N:4319981, Applied Biosystems), 0.25 mM each of dNTPs, […] MultiScribe RT (P/N: 4319983, Applied Biosystems) and […] RNase inhibitor (P/N: N8080119; Applied Biosystems). The 15 μl reactions were incubated in an Applied Biosystems 9700 Thermocycler for 30 min at 16° C., 30 min at 42° C., 5 min at 85° C., and then held at 4° C.
Real-time PCR was performed using a standard TaqMan PCR kit protocol on an Applied Biosystems 7900HT Sequence Detection System. The 20 μl PCR mix included 2 μl RT product, 10 μl TaqMan Universal PCR Master Mix (Applied Biosystems), […] TaqMan probe. The reactions were incubated in a 96-well plate at 95° C. for 10 min, followed by 60 cycles of 95° C. for 15 s and 60° C. for 1 min.
(§1) N—[N-(3,5-difluorophenacetyl)-l-alanyl]-S-phenylglycine t-butylester (DAPT (Sigma-Aldrich) treatment of the Daoy cells was performed as follows: the cells were plated and allowed to grow overnight in medium containing 10% FBS. The next morning, the medium was replaced with medium containing 10 μM DAPT and replaced each 4 h with this medium. The expression assays was performed after 0, 6, 12, 24 h of treatment […], using control experiments including the corresponding volume of DMSO as vehicle.

[3] = tested on: Daoy cell line; experiment: DAPT treatment, stem-cell gene expression by real-time PCR; type: cell-based, human; conditions: Daoy + DAPT 12 h
Description: Total RNA was extracted from the cell lines using the Trizol reagent (Invitrogen). Synthesis of cDNA from total RNA (4 μg) was performed using a Super Script II First Strand Kit (Invitrogen). Real-time quantitative PCR was performed using standard protocols with an Applied Biosystems ABI PRISM 7900HT Sequence Detection system. To calculate the relative gene expression of the miR-199b-5p precursor, the relative amounts of each pre-miRNA were normalized to U6 miRNA; the other genes were normalized using the β-actin gene. Real-time PCR primers for each gene were designed using Primer Express software version 2.0 (Applied Biosystems). The primer sequences are available upon request.
as §1

[4] = tested on: HES1; experiment: Western blotting of HES1 protein; type: cell-based, human; conditions: Daoy cell line, DAPT 12 h
Description: Thirty μg cytosolic or nuclear lysates were loaded onto 12% polyacrilamide gels, and blotted onto polyvinylidene difluoride membranes (PVDF; BioRad, Milan, Italy). The membranes were then incubated with anti-HES1 (kind gift of Dr. Tetsuo Sudo TORAY Industries, Tebiro Kamakura, Japan), a polyclonal rabbit antibody (1:500), an anti-GSK3-β (B&D Bioscience) monoclonal antibody (1:2500), an anti-c-Myc polyclonal rabbit antibody (1:200) (Santa Cruz Biotechnology, Santa Cruz, Calif., USA), an anti-GABRA6 antibody (Santa Cruz Biotechnology, Santa Cruz, USA) (1:200), an anti-MATH3 antibody (Santa Cruz Biotechnology, Santa Cruz, USA) (1:200) and an anti-cyclin D1 (1:200) polyclonal rabbit antibody (Cell Signaling). An anti-β-actin antibody (1:1.000) (Sigma) was used as the control for equal loading of cytosolic lysates and a polyclonal anti-β-laminin antibody (1:50) (Santa Cruz Biotechnology, Santa Cruz, Calif., USA) for equal loading of nuclear lysates.

| Compound | miR-199b-5p expression [1] | increase of miR-199b-5p level [2] [fold] | CD 133 expression 2^-DCt [3] | HMGA1 expression 2^-DCt [3] | HMGB3 expression 2^-DCt [3] | ILF3 expression 2^-DCt [3] | KLF5 expression 2^-DCt [3] | MYBL2 expression 2^-DCt [3] | Nanog expression 2^-DCt [3] | Oct4 expression 2^-DCt [3] | PDGFR-A expression 2^-DCt [3] | PDGFR-B expression 2^-DCt [3] | SPARC expression 2^-DCt [3] | TCF7L1 expression 2^-DCt [3] | TEAD4 expression 2^-DCt [3] | ZIC1 expression 2^-DCt [3] | c-Myc expression 2^-DCt [3] | HES1 protein (Western blot) [4] |
| --- | --- | --- | --- | --- | --- | --- | --- | --- | --- | --- | --- | --- | --- | --- | --- | --- | --- | --- |
| Nc1ncn([C@H]2C[C@H](O)[C@@H](CO)O2)c(=O)n1 [5-aza-deoxycytidine] | significant up-regulation | – | – | – | – | – | – | – | – | – | – | – | – | – | – | – | – | – |
| C[C@H](NC(=O)Cc1cc(F)cc(F)c1)C(=O)N[C@H](C(=O)OC(C)(C)C)c1ccccc1 [DAPT, N—[N-(3,5-difluorophenacetyl)-l-alanyl]-S-phenylglycine t-butylester] | – | 9 | 0.001237 | 0.004879 | 0.005577 | 0.04252 | 0.02368 | 0.003932 | 0.0004488 | 0.0007941 | 0.0000015 | 0.0000606 | 0.07977 | 0.0001026 | 0.005176 | 0.0002784 | 0.05427 | down-regulation |
